Experimental data published in the NIST ThermoML archive (doi:10.1016/j.fluid.2007.07.029).

Details: Liquid, Transpiration method

CCCCC(CC)C(=O)OCC(COC(=O)C(CC)CCCC)(COC(=O)C(CC)CCCC)COC(=O)C(CC)CCCC (stereo not given) [pentaerythritol tetra(2-ethylhexanoate)]
Details	vapor or sublimation pressure [kPa]
353.96 K	1.27e-07
363.89 K	3.67e-07
373.81 K	1.07e-06
383.56 K	3.37e-06
393.56 K	8.94e-06
403.44 K	2.37e-05
413.44 K	5.82e-05
423.4 K	0.000133
433.18 K	0.000287
443.17 K	0.000644

CCCCCCC(=O)OCC(COC(=O)CCCCCC)(COC(=O)CCCCCC)COC(=O)CCCCCC [pentaerythritol tetraheptanoate]
Details	vapor or sublimation pressure [kPa]
373.81 K	2.58e-07
393.48 K	2.61e-06
413.4 K	2.2e-05
433.36 K	0.000131

CCCCCCCCC(=O)OCC(COC(=O)CCCCCCCC)(COC(=O)CCCCCCCC)COC(=O)CCCCCCCC [pentaerythritol tetranonanoate]
Details	vapor or sublimation pressure [kPa]
394.55 K	5.57e-08
414.72 K	5.21e-07
435.03 K	3.98e-06
435.11 K	3.97e-06
455.36 K	2.82e-05
476.47 K	0.000174

CCCCC(=O)OCC(COC(=O)CCCC)(COC(=O)CCCC)COC(=O)CCCC [pentaerythritol tetrapentanoate]
Details	vapor or sublimation pressure [kPa]
334.02 K	2.55e-07
353.94 K	2.88e-06
373.62 K	2.61e-05
393.34 K	0.000166
413.08 K	0.000935
